{"source": "patent US20260191863A1", "about": "“PYRROLOPYRIMIDINE COMPOSITIONS FOR TREATMENT OF ITK MEDIATED CONDITIONS” (ACLARIS THERAPEUTICS, INC., priority 2022, published 2026)", "key": {"[1]": {"tested_on": "experimental colitis", "experiment": "Mouse colitis model vs ritlecitinib and tofacitinib, histological damage", "assay_type": "in vivo", "conditions": "proximal/distal colon and ileum", "protocol": "[…] experimental colitis data-Histological damage was evaluated for the proximal/distal colon and ileum. Representative data shown here is from the distal colon-across all three regions of GI tissues analyzed."}, "[2]": {"tested_on": "JAK3 (pSTAT5, lymph)", "experiment": "SAD ex vivo PD: IL2 stimulated pSTAT5 in lymphocytes", "conditions": "Homo sapiens, Lymphocyte; SAD study; read-out: Clinical EC50", "from_the_text": "Secondary Endpoints—Compound I plasma concentrations. Mean change from baseline in ex vivo stimulated pSTAT5 and pSTAT1 (signal transducer and activator of transcription); and in ex vivo stimulated IFNγ mRNA (interferon gamma messenger ribonucleic acid).\nSummary of SAD data: FIGS. 4-8 and 9-13 show the SAD dose response, SAD exposure response, and SAD calculated response at Cmax by dose respectively for ITK (IL2 mRNA), ITK (IFNγ mRNA), JAK3 (pSTAT5, lymph), JAK3 (pSTAT5, CD3′ T), and ITK & JAK (IFNγ protein). Clinical and pre-clinical IC50 data for ITK (IL2 mRNA), ITK (IFNγ mRNA), JAK3 (pSTAT5, lymph), JAK3 (pSTAT5, CD3^+ T), and ITK & JAK (IFNγ protein) from the SAD study is shown in table 4."}, "[3]": {"tested_on": "ITK and JAK3", "experiment": "MAD exploratory PD, all biomarker readouts", "assay_type": "in vivo, human", "protocol": "Exploratory Endpoints—Mean change from baseline in cellular, extracellular (secreted), and/or message markers of inflammation.\nResults: 57 subjects completed the MAD study. […] Peak concentrations were reached within 2 hours after dosing."}, "[4]": {"tested_on": "colitis (mouse T cell transfer model)", "experiment": "Mouse T cell transfer model of inflammatory bowel disease", "assay_type": "in vivo", "from_the_text": "The study evaluated Compound I dose dependent ability to inhibit inflammation in the mouse T cell transfer model of inflammatory bowel disease."}, "[5]": {"biological_target": "T1, ITK (Homo sapiens, UniProt Q08881)", "T1 construct": "(Jurkat/pPLCγ1); endogenous in cells; host or cells: Jurkat", "T1 sequence (Q08881 1-620)": "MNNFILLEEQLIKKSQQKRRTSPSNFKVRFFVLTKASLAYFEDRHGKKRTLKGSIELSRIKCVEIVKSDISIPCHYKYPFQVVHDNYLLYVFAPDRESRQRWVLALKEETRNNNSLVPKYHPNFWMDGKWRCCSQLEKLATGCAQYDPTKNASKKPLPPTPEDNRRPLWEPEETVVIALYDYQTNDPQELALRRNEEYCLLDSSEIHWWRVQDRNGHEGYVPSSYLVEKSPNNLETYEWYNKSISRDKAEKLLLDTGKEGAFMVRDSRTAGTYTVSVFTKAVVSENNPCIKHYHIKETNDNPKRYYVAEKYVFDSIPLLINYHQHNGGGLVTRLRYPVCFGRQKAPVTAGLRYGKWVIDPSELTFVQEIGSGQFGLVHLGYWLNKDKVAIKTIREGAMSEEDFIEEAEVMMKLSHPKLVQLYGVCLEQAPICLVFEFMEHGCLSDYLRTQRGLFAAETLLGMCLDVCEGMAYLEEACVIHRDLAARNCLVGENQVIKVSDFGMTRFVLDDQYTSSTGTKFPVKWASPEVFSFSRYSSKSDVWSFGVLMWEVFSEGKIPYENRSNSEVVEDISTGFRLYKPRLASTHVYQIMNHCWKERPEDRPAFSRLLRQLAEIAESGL", "experiment": "Cell IC50 ITK (Jurkat/pPLCγ1)", "assay_type": "cell-based"}, "[6]": {"experiment": "13 week toxicology and toxicokinetic study in rats", "assay_type": "in vivo, rat", "from_the_text": "Purpose: Evaluation of toxicity and toxicokinetic (TK) for Compound I, following daily dosing for 13 weeks."}}, "note": "“Also recorded” adds a separate entry of the source.", "data": [{"smiles": "C=CC(=O)N1C[C@H](Nc2ncnc3[nH]cc([C@H]4CC4(F)F)c23)CC[C@@H]1C", "note": "[Compound I, 1-((2S,5R)-5-((5-((R)-2,2-difluorocyclopropyl)-7H-pyrrolo[2,3-d]pyrimidin-4-yl)amino)-2-methylpiperidin-1-yl)prop-2-en-1-one]", "values": [{"measurement": "Protection from histological damage vs comparator drugs", "setting": "[1]", "result": "more protective than both comparator drugs"}, {"measurement": "EC50", "setting": "[2]", "result": 137, "unit": "nM"}, {"measurement": "Inhibition of biomarker readouts, comparison of regimens", "setting": "[3]; 10 mg TID, 15 mg BID, 30 mg BID doses", "result": "inhibited biomarker readouts to a similar extent"}, {"measurement": "Change of MAD Day 1 EC50 vs Days 7 & 15 EC50", "setting": "[3]; MAD", "result": "No significant change"}, {"measurement": "Modulation of all PD biomarker readouts", "setting": "[3]; MAD", "result": "dose- and time-dependent modulation; also recorded: dose and time dependent modulation"}, {"measurement": "Inhibition of biomarker readouts", "setting": "[3]; MAD, 15-40 mg BID, across the dosing intervals", "result": "50-90%"}, {"measurement": "Inhibition of biomarker readouts", "setting": "[3]; MAD, 2 hours post treatment, doses of 15 mg to 80 mg", "result": "Near-complete inhibition"}, {"measurement": "Colitis", "setting": "[4]", "result": "inhibited colitis"}, {"measurement": "Effect compared with anti-IL12 (P40)", "setting": "[4]", "result": "The effect was greater than anti-IL12 (P40)"}, {"measurement": "Inflammation in proximal and distal colon, and ileum", "setting": "[4]", "result": "dose dependently decreased inflammation"}, {"measurement": "Potency on ITK relative to ritlecitinib", "setting": "[5]", "result": "~ 100 ×"}, {"measurement": "Potency relative to Ritlecitinib, ITK (Jurkat/pPLCγ1)", "setting": "[5]", "result": 81, "unit": "fold"}, {"measurement": "T cell receptor blockade, Compound I vs CsA", "setting": "[5]", "result": "equipotent"}, {"measurement": "IC50", "setting": "[5]; Jurkat, pPLCγ1", "result": 8, "unit": "nM"}, {"measurement": "Selectivity for ITK (over JAK3)", "setting": "[5]; cell IC50 ITK vs JAK3", "result": 3, "unit": "fold"}, {"measurement": "Nephrotoxicity", "setting": "[6]; Compound I toxicity studies", "result": "no evidence of nephrotoxicity"}, {"measurement": "Cmax", "setting": "[6]; in vivo, 80 mg/kg, rat, NOAEL 80 mpk", "result": 13800, "unit": "ng/mL"}, {"measurement": "AUC(0-t)", "setting": "[6]; in vivo, 80 mg/kg, rat, NOAEL 80 mpk, read-out: AUC0-24 h at NOAEL", "result": 45000, "unit": "ng·h/mL"}, {"measurement": "Adverse effects", "setting": "[6]; rat, 5, 20, 80 mpk, 13 weeks", "result": "No adverse effects observed"}, {"measurement": "No observed adverse effect level", "setting": "[6]; rat, daily dosing 13 weeks", "result": 80, "unit": "mpk"}]}]}
